In brackets after ≈: the same amount, converted by molar mass.
Experiments:
Type in all cases: functional
[1] = system: Bactrocera dorsalis; assay: Insecticidal activity against adult Bactrocera dorsalis QY07 assessed as mortality after 24 hr; conditions: QY07, 24 h
[2] = system: Bactrocera dorsalis; assay: Insecticidal activity against adult Bactrocera dorsalis HY07 assessed as mortality after 24 hr; conditions: HY07, 24 h
[3] = system: Bactrocera dorsalis; assay: Insecticidal activity against adult Bactrocera dorsalis HK07 assessed as mortality after 24 hr; conditions: HK07, 24 h
[4] = system: Bactrocera dorsalis; assay: Insecticidal activity against adult Bactrocera dorsalis YJ07 assessed as mortality after 24 hr; conditions: YJ07, 24 h
[5] = system: Bactrocera dorsalis; assay: Insecticidal activity against adult Bactrocera dorsalis NN07 assessed as mortality after 24 hr; conditions: NN07, 24 h
[6] = system: Bactrocera dorsalis; assay: Insecticidal activity against adult Bactrocera dorsalis CS07 assessed as mortality after 24 hr; conditions: CS07, 24 h
[7] = system: Bactrocera dorsalis; assay: Insecticidal activity against adult Bactrocera dorsalis FZ07 assessed as mortality after 24 hr; conditions: FZ07, 24 h
[8] = system: Bactrocera dorsalis; assay: Insecticidal activity against adult Bactrocera dorsalis WX07 assessed as mortality after 24 hr; conditions: WX07, 24 h
[9] = system: Bactrocera dorsalis; assay: Insecticidal activity against adult Bactrocera dorsalis assessed as mortality after 24 hr
[10] = system: Bactrocera dorsalis; assay: Resistance ratio of LC50 for adult Bactrocera dorsalis C-R-48 to LC50 for adult Bactrocera dorsalis
[11] = system: Bactrocera dorsalis; assay: Resistance ratio of LC50 for adult Bactrocera dorsalis C-R-45 to LC50 for adult Bactrocera dorsalis
[12] = system: Bactrocera dorsalis; assay: Insecticidal activity against adult Bactrocera dorsalis C-R-48 assessed as mortality
[13] = system: Bactrocera dorsalis; assay: Insecticidal activity against adult Bactrocera dorsalis C-R-45 assessed as mortality
[14] = system: Bactrocera dorsalis; assay: Resistance ratio of LC50 for adult Bactrocera dorsalis HZ08 to LC50 for adult Bactrocera dorsalis after 24 hr
[15] = system: Bactrocera dorsalis; assay: Resistance ratio of LC50 for adult Bactrocera dorsalis CH08 to LC50 for adult Bactrocera dorsalis after 24 hr
[16] = system: Bactrocera dorsalis; assay: Resistance ratio of LC50 for adult Bactrocera dorsalis GZ08 to LC50 for adult Bactrocera dorsalis after 24 hr
[17] = system: Bactrocera dorsalis; assay: Resistance ratio of LC50 for adult Bactrocera dorsalis QY08 to LC50 for adult Bactrocera dorsalis after 24 hr
[18] = system: Bactrocera dorsalis; assay: Resistance ratio of LC50 for adult Bactrocera dorsalis MM08 to LC50 for adult Bactrocera dorsalis after 24 hr
[19] = system: Bactrocera dorsalis; assay: Resistance ratio of LC50 for adult Bactrocera dorsalis HY08 to LC50 for adult Bactrocera dorsalis after 24 hr
[20] = system: Bactrocera dorsalis; assay: Resistance ratio of LC50 for adult Bactrocera dorsalis NN08 to LC50 for adult Bactrocera dorsalis after 24 hr
[21] = system: Bactrocera dorsalis; assay: Resistance ratio of LC50 for adult Bactrocera dorsalis HK08 to LC50 for adult Bactrocera dorsalis after 24 hr
[22] = system: Bactrocera dorsalis; assay: Resistance ratio of LC50 for adult Bactrocera dorsalis FZ08 to LC50 for adult Bactrocera dorsalis after 24 hr
[23] = system: Bactrocera dorsalis; assay: Resistance ratio of LC50 for adult Bactrocera dorsalis YJ08 to LC50 for adult Bactrocera dorsalis after 24 hr
[24] = system: Bactrocera dorsalis; assay: Resistance ratio of LC50 for adult Bactrocera dorsalis WX08 to LC50 for adult Bactrocera dorsalis after 24 hr
[25] = system: Bactrocera dorsalis; assay: Resistance ratio of LC50 for adult Bactrocera dorsalis NN07 to LC50 for adult Bactrocera dorsalis after 24 hr
[26] = system: Bactrocera dorsalis; assay: Resistance ratio of LC50 for adult Bactrocera dorsalis HK07 to LC50 for adult Bactrocera dorsalis after 24 hr
[27] = system: Bactrocera dorsalis; assay: Resistance ratio of LC50 for adult Bactrocera dorsalis FZ07 to LC50 for adult Bactrocera dorsalis after 24 hr
[28] = system: Bactrocera dorsalis; assay: Resistance ratio of LC50 for adult Bactrocera dorsalis YJ07 to LC50 for adult Bactrocera dorsalis after 24 hr
[29] = system: Bactrocera dorsalis; assay: Resistance ratio of LC50 for adult Bactrocera dorsalis WX07 to LC50 for adult Bactrocera dorsalis after 24 hr
[30] = system: Bactrocera dorsalis; assay: Resistance ratio of LC50 for adult Bactrocera dorsalis CS07 to LC50 for adult Bactrocera dorsalis after 24 hr
[31] = system: Bactrocera dorsalis; assay: Resistance ratio of LC50 for adult Bactrocera dorsalis CS08 to LC50 for adult Bactrocera dorsalis after 24 hr
[32] = system: Bactrocera dorsalis; assay: Resistance ratio of LC50 for adult Bactrocera dorsalis HZ07 to LC50 for adult Bactrocera dorsalis after 24 hr
[33] = system: Bactrocera dorsalis; assay: Resistance ratio of LC50 for adult Bactrocera dorsalis ZJ07 to LC50 for adult Bactrocera dorsalis after 24 hr
[34] = system: Bactrocera dorsalis; assay: Resistance ratio of LC50 for adult Bactrocera dorsalis CH07 to LC50 for adult Bactrocera dorsalis after 24 hr
[35] = system: Bactrocera dorsalis; assay: Resistance ratio of LC50 for adult Bactrocera dorsalis GZ07 to LC50 for adult Bactrocera dorsalis after 24 hr
[36] = system: Bactrocera dorsalis; assay: Resistance ratio of LC50 for adult Bactrocera dorsalis MM07 to LC50 for adult Bactrocera dorsalis after 24 hr
[37] = system: Bactrocera dorsalis; assay: Resistance ratio of LC50 for adult Bactrocera dorsalis HY07 to LC50 for adult Bactrocera dorsalis after 24 hr
[38] = system: Bactrocera dorsalis; assay: Resistance ratio of LC50 for adult Bactrocera dorsalis QY07 to LC50 for adult Bactrocera dorsalis after 24 hr
[39] = system: Bactrocera dorsalis; assay: Insecticidal activity against adult Bactrocera dorsalis GZ08 assessed as mortality after 24 hr; conditions: GZ08, 24 h
[40] = system: Bactrocera dorsalis; assay: Insecticidal activity against adult Bactrocera dorsalis HZ08 assessed as mortality after 24 hr; conditions: HZ08, 24 h
[41] = system: Bactrocera dorsalis; assay: Insecticidal activity against adult Bactrocera dorsalis CH08 assessed as mortality after 24 hr; conditions: CH08, 24 h
[42] = system: Bactrocera dorsalis; assay: Insecticidal activity against adult Bactrocera dorsalis QY08 assessed as mortality after 24 hr; conditions: QY08, 24 h
[43] = system: Bactrocera dorsalis; assay: Insecticidal activity against adult Bactrocera dorsalis MM08 assessed as mortality after 24 hr; conditions: MM08, 24 h
[44] = system: Bactrocera dorsalis; assay: Insecticidal activity against adult Bactrocera dorsalis HK08 assessed as mortality after 24 hr; conditions: HK08, 24 h
[45] = system: Bactrocera dorsalis; assay: Insecticidal activity against adult Bactrocera dorsalis HY08 assessed as mortality after 24 hr; conditions: HY08, 24 h
[46] = system: Bactrocera dorsalis; assay: Insecticidal activity against adult Bactrocera dorsalis YJ08 assessed as mortality after 24 hr; conditions: YJ08, 24 h
[47] = system: Bactrocera dorsalis; assay: Insecticidal activity against adult Bactrocera dorsalis NN08 assessed as mortality after 24 hr; conditions: NN08, 24 h
[48] = system: Bactrocera dorsalis; assay: Insecticidal activity against adult Bactrocera dorsalis FZ08 assessed as mortality after 24 hr; conditions: FZ08, 24 h
[49] = system: Bactrocera dorsalis; assay: Insecticidal activity against adult Bactrocera dorsalis WX08 assessed as mortality after 24 hr; conditions: WX08, 24 h
[50] = system: Bactrocera dorsalis; assay: Insecticidal activity against adult Bactrocera dorsalis CS08 assessed as mortality after 24 hr; conditions: CS08, 24 h
[51] = system: Bactrocera dorsalis; assay: Insecticidal activity against adult Bactrocera dorsalis HZ07 assessed as mortality after 24 hr; conditions: HZ07, 24 h
[52] = system: Bactrocera dorsalis; assay: Insecticidal activity against adult Bactrocera dorsalis ZJ07 assessed as mortality after 24 hr; conditions: ZJ07, 24 h
[53] = system: Bactrocera dorsalis; assay: Insecticidal activity against adult Bactrocera dorsalis GZ07 assessed as mortality after 24 hr; conditions: GZ07, 24 h
[54] = system: Bactrocera dorsalis; assay: Insecticidal activity against adult Bactrocera dorsalis MM07 assessed as mortality after 24 hr; conditions: MM07, 24 h
[55] = system: Bactrocera dorsalis; assay: Insecticidal activity against adult Bactrocera dorsalis CH07 assessed as mortality after 24 hr; conditions: CH07, 24 h

`CC1(C)[C@H](C=C(Cl)Cl)[C@H]1C(=O)O[C@@H](C#N)c1cccc(Oc2ccccc2)c1` [BETA-CYPERMETHRIN] gave an LC50 [1] of 15.1 µg/mL (≈ 36.4 µM), an LC50 [2] of 32.7 µg/mL (≈ 78.5 µM) and an LC50 [3] of 15.5 µg/mL (≈ 37.2 µM). It also gave an LC50 [4] of 2.74 µg/mL (≈ 6.58 µM), an LC50 [5] of 7.95 µg/mL (≈ 19.1 µM) and an LC50 [6] of 15.1 µg/mL (≈ 36.2 µM). For the same compound, the LC50 [7] was 13.3 µg/mL (≈ 31.9 µM), the LC50 [8] was 23.9 µg/mL (≈ 57.3 µM) and the LC90 [9] was 3.6 µg/mL (≈ 8.65 µM). The LC50 ([9]; Bactrocera dorsalis, 24 h) was 2.49 µg/mL (≈ 5.98 µM), the RatioLC50 [10] was 333.42 and the RatioLC50 [11] was 329.3. The LC90 [12] was 3959.5 µg/mL (≈ 9510 µM), the LC50 ([12]; Bactrocera dorsalis, C-R-48) was 830 µg/mL (≈ 1990 µM) and the LC90 [13] was 7082.07 µg/mL (≈ 17000 µM). The LC50 ([13]; Bactrocera dorsalis, C-R-45) was 820 µg/mL (≈ 1970 µM), the RatioLC50 [14] was 28.39 and the RatioLC50 [15] was 24.35. For the same compound, the RatioLC50 [16] was 9.71, the RatioLC50 [17] was 4.91 and the RatioLC50 [18] was 13.72. The RatioLC50 [19] was 17.06, the RatioLC50 [20] was 5.02 and the RatioLC50 [21] was 12.17. The RatioLC50 [22] was 8.17, the RatioLC50 [23] was 4.23 and the RatioLC50 [24] was 44.03. The RatioLC50 [25] was 3.19, the RatioLC50 [26] was 6.23 and the RatioLC50 [27] was 5.34. The RatioLC50 [28] was 1.1, the RatioLC50 [29] was 9.59 and the RatioLC50 [30] was 6.06. The RatioLC50 [31] was 5.93, the RatioLC50 [32] was 4.57 and the RatioLC50 [33] was 3.01. The RatioLC50 [34] was 25.74, the RatioLC50 [35] was 18.6 and the RatioLC50 [36] was 17. For the same compound, the RatioLC50 [37] was 13.14, the RatioLC50 [38] was 6.08 and the LC50 [39] was 24.2 µg/mL (≈ 58.1 µM). For the same compound, the LC50 [40] was 70.7 µg/mL (≈ 170 µM), the LC50 [41] was 60.6 µg/mL (≈ 146 µM) and the LC50 [42] was 12.2 µg/mL (≈ 29.4 µM). It also gave an LC50 [43] of 34.2 µg/mL (≈ 82.1 µM), an LC50 [44] of 30.3 µg/mL (≈ 72.8 µM) and an LC50 [45] of 42.5 µg/mL (≈ 102 µM). It also gave an LC50 [46] of 10.5 µg/mL (≈ 25.3 µM), an LC50 [47] of 12.5 µg/mL (≈ 30 µM) and an LC50 [48] of 20.4 µg/mL (≈ 48.9 µM). It also gave an LC50 [49] of 110 µg/mL (≈ 263 µM), an LC50 [50] of 14.8 µg/mL (≈ 35.4 µM) and an LC50 [51] of 11.4 µg/mL (≈ 27.3 µM). It also gave an LC50 [52] of 7.49 µg/mL (≈ 18 µM), an LC50 [53] of 46.3 µg/mL (≈ 111 µM) and an LC50 [54] of 42.3 µg/mL (≈ 102 µM). The LC50 [55] was 64.1 µg/mL (≈ 154 µM).
